Laboratory results taken from paper PMC6961122 (Bioorganic & Medicinal Chemistry, 2020).
Read-outs that look alike come from different tables or passages of the source.

What was measured:
[1] = test system: G317 patient-derived glioma cells; test: Growth inhibition (GI50, PrestoBlue, 5 d) in patient-derived glioma cells G317; type: cell-based, human; settings: Homo sapiens, Glioma cell, 120 h, 5 d treatment, growth related to t=0 and DMSO, extrapolated from sigmoidal dose-response curve, read-out: GI50 (50% of growth inhibition) in G317
Method: Cells were treated with each inhibitor at concentrations ranging from 1 to 10,000 nM and PrestoBlue assay used at day 5 to detect viability. […] Data are means ± SEM of 3 independent experiments in triplicates.
(§1) U87 and T98 cells (ATCC) were cultured in DMEM (Gibco), supplemented with 10% (v/v) FBS (Gibco) and 2 mM L-Glutamine (Gibco) in a standard incubator (95% humidity, 5% CO2), and subcultured twice per week through trypsinization. G317 patient-derived glioma cells were established by the Glioma Cellular Genetics Resource (gcgr.org.uk) funded by Cancer Research UK. Ethics approval for use of patient-derived cells and early access confirmation to reagents from the Glioma Cellular Genetics Resource assured that all ethical issues according to UK legislation are fulfilled. G317 were cultured in DMEM/HAMS-F12 (Sigma) supplemented with 1.5 g L^−1 D-(+)-Glucose (Sigma), MEM non-essential aminoacids (Gibco), 0.015% (w/v) Penicillin-Streptomycin (Gibco), 0.012% (w/v) BSA (Gibco), 0.1 mM β-mercaptoethanol (Gibco), B27 (Gibco) and N2 supplements (Gibco). Cells were detached using accutase solution (Sigma) and subcultured once per week. Before adding to the cells, medium was supplemented with 10 ng ml^−1 mouse EGF (Preprotech), 10 ng ml^−1 human FGF (Preprotech), and 1 µg ml^−1 Laminin (Sigma).
(§2) 1 × 10^3 U87 cells/well, 5 × 10^2 T98 cells/well, 1 × 10^4 G317 cells/well, 1 × 10^4 HBVP cells/well and 1 × 10^4 bEnd3 cells/well were seeded in 96-well plates. After 48 h in culture, cells were treated with the inhibitors for 5 d. For GI50 determination, the viability of a triplicate sample of each experiment before treatment was measured with the PrestoBlue Reagent (Invitrogen), to establish a basepoint 0% of growth. […] ZIP Synergy scores were obtained with Synergy finder.[22] Viability percentage, EC50 and GI50 values were obtained using GraphPad Prism version 8.0.0 for Windows, GraphPad Software, San Diego, California USA, www.graphpad.com.
Table S2 . GI 50 values (nM) calculated for eCF309 , eCF311 , eCF312 , eCF324 , eCF325 and controls
Cells were treated with 10, 3, 1 µM,
300, 100, 30, 10, 3, 1, 0 nM of each inhibitor during 5 d. Cell growth (PrestoBlue) was related to t=0 (before
drug treatment), and GI 50 values were extrapolated from their corresponding sigmoidal dose-response curve

G317 spheroids = test: 3D spheroids assay, G317 spheroid area; type: cell-based, human; settings: pre-formed spheroids; 0.01–10 µM for 8 days
Method: To test the compounds under conditions that better represent the tumour microenvironment, G317 cells were cultured in 3D and pre-formed spheroids treated with eCF309, eCF324 and the positive controls at a range of concentrations (0.01–10 µM) for 8 days.
Fig. 6 (a) Images of G317 spheroids on day 10. Spheroids were treated with 10 μM of each inhibitor during 8 days, images were acquired using ImageXpress. Scale bar = 100 μm. (b) Area of G317 patient derived spheroids at day 10. Spheroid area was calculated with a custom pipeline on CellProfiler. Data are mean ± SEM of 6 independent spheroids from two different cultures, ***P < 0.001, **P < 0.01 compared to DMSO controls (two-way ANOVA, Tukey post hoc test).
4 × 10^3 G317 cells were seeded in an ultra-low attachment round bottom 96-well plate, centrifuged at 1000g, 4 °C for 10 min and allowed to form spheroids for 2 days. Spheroids were then incubated with the inhibitors at 4 concentrations ranging from 10 nM to 10 µM. Spheroids were imaged at day 10 using ImageXpress (Molecular Devices LLC) and processed with ImageJ.[25] Spheroid area was calculated with a custom pipeline on CellProfiler.[26]

U87 cells [2] = test: Cell viability assay (PrestoBlue, 5 d) in U87 glioma cells; type: cell-based; settings: Homo sapiens, U-87 MG, 120 h, library screen, 5 d treatment, mean of three independent experiments in triplicates, read-out: EC50 U87 ± SEM
Method: (§3) The antiproliferative activity of a total of 100 compounds was tested against U87 and T98 glioma cell lines, using TMZ[3] and the Topoisomerase I inhibitor SN-38[18] as positive controls. Cells were treated with the library members for 5 d at three different concentrations (3, 30 and 300 µM) and cell viability determined using the PrestoBlue reagent. Half-maximal effective concentration (EC50) values were calculated from the corresponding dose-response curves and plotted in Fig. 2a as a heatmap to facilitate data analysis, with black meaning no activity and dark to light green to yellow transitions indicating decreasing EC50 values (=increasing potencies). Table 1 of the Suppl. Data contains the corresponding EC50 values ± SEM.
(§4) INK128 and SN-38 were used as positive controls. […] Structurally, these derivatives differed in the size of the alkyl group of the N1 position and the presence or absence of an oxygen atom in that moiety (see Suppl. Data).
as §1, §2

T98 cells [3] = test: Cell viability assay (PrestoBlue, 5 d) in T98 glioma cells; type: cell-based; settings: Homo sapiens, T98, 120 h, library screen, 5 d treatment, mean of three independent experiments in triplicates, read-out: EC50 T98 ± SEM
Method: as §3, §4, §1, §2

T98 cells [4] = test: as above; type: cell-based; settings: Homo sapiens, T98, 120 h; repeat for most potent hits; 7-point half-log dose-response 1 to 1,000 nM; PrestoBlue day 5
U87 cells [5] = test: Cell viability assay (PrestoBlue, 5 d) in U87 glioma cells; type: cell-based; settings: Homo sapiens, U-87 MG, 120 h; repeat for most potent hits; 7-point half-log dose-response 1 to 1,000 nM; PrestoBlue day 5
mTOR = test system: mTOR; design: method as in earlier work; settings: recombinant kinase; previously obtained kinase profiling data; cited from earlier work
PI3Kα = test system: PI3Kα; design: method as in earlier work; settings: recombinant kinase; previously obtained kinase profiling data; cited from earlier work

| SMILES | GI50 [1] [nM] | reduction of G317 spheroid size (area at day 10) (G317 spheroids) | EC50 (U87 cells [2]) [nM] | EC50 (T98 cells [3]) [nM] | EC50 (T98 cells [4]) [nM] | EC50 (U87 cells [5]) [nM] | IC50 (mTOR) [nM] | IC50 (PI3Kα) [nM] |
| --- | --- | --- | --- | --- | --- | --- | --- | --- |
| CC(C)n1nc(-c2ccc3oc(N)nc3c2)c2c(N)ncnc21 [INK128, sapanisertib, reference compound] | 9.3 | most potent antiproliferative activities |  |  |  |  |  |  |
| Nc1nc2cc(-c3nn(CC4CCCC4)c4ncnc(N)c34)ccc2o1 [eCF324] | 7.2 | most potent antiproliferative activities | 16 ± 3 | 11 ± 3 | 10 | 13 | 1.8 | 3.5 |
